According to patent US20260297088A1, “A 1,5-DIHYDRO-4H-PYRROLO[3,2-C] PYRIDIN-4-ONE FOR USE IN THE TREATMENT OF CANCER” (ANTARES THERAPEUTICS, INC., priority 2023, published 2026):

What was measured:
[1] = system: BaF3 SVD (EGFR exon 20 SVD Ins D770_N771); test: Ba/F3 cell viability (CellTiter-Glo), EGFR exon 20 SVD Ins D770_N771; assay type: cell-based, murine; conditions: Mus musculus, Ba/F3 EGFR exon 20 SVD Ins D770_N771, 72 hours
Description: (§1) Cell lines are generated by transducing Ba/F3 cells with retroviruses containing vectors with EGFR WT, EGFR exon 20 NPG Ins D770_N771, EGFR exon 20 ASV Ins V769_D770, EGFR exon 20 SVD Ins D770_N771, or EGFR exon 20 FQEA Ins A763_V764 genes and a puromycin selection marker. Transduced cells are selected with puromycin for 7 days and are then be transferred into culture media without Interleukin 3 (IL3). EGFR WT cells are maintained with supplemental EGF. Surviving cells are confirmed to express EGFR by Western blot and maintained as a pool. The IC50 data are included in Table 6.
(§2) • 1 Cell seeding • 1.1 Cells are harvested from flask into cell culture medium and the cell number counted. • 1.2 Cells are diluted with culture medium to the desired density and 40 L of cell suspension is added into each well of 384-well cell culture plate and the seeding density is 600 cells/well. • 2 Compound preparation and treatment • 2.1 Test compounds are dissolved to 10 mM in a DMSO stock solution. 45 µL of stock solution is transferred to a 384 polypropylene plate (pp-plate). Perform 3-fold, 10-point dilution via transferring 15 L compound into 30 L DMSO using a TECAN (EVO200) liquid handler. • 2.2 Spin plates at room temperature at 1,000 RPM for 1 minute. • 2.3 Transfer 120 nL of diluted compound from compound source plate into the cell plate. • 2.4 After compound treatment for 72 hours, perform CTG detection for compound treatment plates as described in “Detection” section. • 3 Detection • 3.1 Plates are removed from incubators and equilibrated at room temperature for 15 minutes. • 3.2 Thaw the CellTiter Glo reagents and allow to equilibrate to room temperature before the experiment. • 3.3 Add 40 µL of CellTiter-Glo reagent into each well (at 1:1 to culture medium). Then place the plates at room temperature for 30 min followed by reading on EnVision. • 4 Data analysis • 4.1 Inhibition activity is calculated following the formula below:
(§3) [formula] • where HC is obtained from cells treated with 0.1% DMSO only; and LC is obtained from culture medium only. • 4.2 2. Calculate the IC50 by fitting the Curve using Xlfit (v5.3.1.3), equation 201:
(§4) [formula] • The IC50 date are included in Table 6.

[2] = system: EGFR L858R phosphorylation (pEGFR); test: Inhibitor activity on EGFR phosphorylation (pEGFR AlphaLISA), L858R; assay type: cell-based; conditions: 2 hours
[3] = system: BaF3 WT (EGFR WT); test: Ba/F3 cell viability (CellTiter-Glo), EGFR WT; assay type: cell-based, murine; conditions: Mus musculus, supplemental EGF, 72 hours
Description: as §1, §2, §3, §4

[4] = system: BaF3 L858R/C797S; test: Ba/F3 cell viability (CellTiter-Glo), EGFR L858R/C797S; assay type: cell-based, murine; conditions: Mus musculus, 72 hours
[5] = system: EGFR phosphorylation (pEGFR) in CUTO14 cells; test: Inhibitor activity on EGFR phosphorylation (pEGFR AlphaLISA), CUTO14 cells; assay type: cell-based; conditions: 2 hours
Description: EGFR mutant Ba/F3 cells were generated by transduction with retrovirus containing vectors expressing EGFR exon 20 NPG Ins D770_N771, EGFR exon 20 ASV Ins V769_D770, or EGFR exon 20 SVD Ins D770_N771 genes along with a puromycin selection marker. Transduced cells are selected with puromycin for 7 days and are then be transferred into culture media without Interleukin 3 (IL3). Surviving cells are confirmed to express EGFR by Western blot and maintained as a pool. CUTO14 cells were obtained from Dr. Robert C. Doebele at the University of Colorado. The IC50 data are included in Table 6.
• 1 Cell seeding • 1.1 Cells are harvested from flask into cell culture medium and the cell number counted. • 1.2 Cells are diluted with culture medium to the desired density and 40 μL of cell suspension is added into each well of 384-well cell culture plate and the seeding density is 50K cells/well (Ba/F3) or 12.5K cells/well (CUTO14). • 2 Compound preparation and treatment • 2.1 Test compounds are dissolved to 10 mM in a DMSO stock solution. 45 µL of stock solution is transferred to a 384 polypropylene plate (pp-plate). Perform 3-fold, 10-point dilution via transferring 15 L compound into 30 L DMSO using a TECAN (EVO200) liquid handler. • 2.2 Spin plates at room temperature at 1,000 RPM for 1 minute. • 2.3 Transfer 5 nL of diluted compound from compound source plate into the cell plate. • 2.4 After compound treatment for 2 hours, perform pEGFR detection by AlphaLISA for compound treatment plates as described in “Detection” section. • 3 Detection by pEGFR AlphaLISA (Perkin-Elmer) • 3.1 Plates are removed from incubators and equilibrated at room temperature for 10 minutes, and media was removed • 3.2 10 µL of lysis buffer is added and plates shaken at 600 rpm for 1 hr. • 3.3 Prepare acceptor mix just before use and dispense 5 μL of acceptor mix to all the wells. […] Mix well on the shaker, seal and wrap in aluminum foil and incubate 1.5 hrs at room temperature in the dark • 3.5 Transfer 18.5 μL mixture to OptiPlate 384, and read using an Envision.

[6] = system: BaF3 NPG (EGFR exon 20 NPG Ins D770_N771); test: Ba/F3 cell viability (CellTiter-Glo), EGFR exon 20 NPG Ins D770_N771; assay type: cell-based, murine; conditions: Mus musculus, Ba/F3 EGFR exon 20 NPG Ins D770_N771, 72 hours
Description: as §1, §2, §3, §4

[7] = system: EGFR Del19 phosphorylation (pEGFR); test: Inhibitor activity on EGFR phosphorylation (pEGFR AlphaLISA), Del19; assay type: cell-based; conditions: 2 hours
[8] = system: BaF3 ASV (EGFR exon 20 ASV Ins V769_D770); test: Ba/F3 cell viability (CellTiter-Glo), EGFR exon 20 ASV Ins V769_D770; assay type: cell-based, murine; conditions: Mus musculus, Ba/F3 EGFR exon 20 ASV Ins V769_D770, 72 hours
Description: as §1, §2, §3, §4

[9] = system: EGFR L858R/C797S phosphorylation (pEGFR); test: Inhibitor activity on EGFR phosphorylation (pEGFR AlphaLISA), L858R/C797S; assay type: cell-based; conditions: 2 hours
[10] = system: EGFR containing one or more mutations versus wild type EGFR; conditions: compound of WO 2022/076831; cited from earlier work
[11] = system: BaF3 Del19; test: Ba/F3 cell viability (CellTiter-Glo), EGFR Del19; assay type: cell-based, murine; conditions: Mus musculus, 72 hours
[12] = system: BaF3 L858R; test: Ba/F3 cell viability (CellTiter-Glo), EGFR L858R; assay type: cell-based, murine; conditions: Mus musculus, 72 hours

SMILES | IC50 [1] [nM] | IC50 [2] [nM] | IC50 [3] [nM] | IC50 [4] [nM] | IC50 [5] [nM] | IC50 [6] [nM] | IC50 [7] [nM] | IC50 [8] [nM] | IC50 [9] [nM] | inhibition of mutant EGFR relative to wild type EGFR [10] | IC50 [11] [nM] | IC50 [12] [nM]
COCCc1c[nH]c(=O)c2c(Nc3cccc(F)c3OC)c(-c3ccnc(C)n3)[nH]c12 [Compound 4] | 100 to 1000 | < 100 | ≥ 1000 | < 100 | < 100 | 100 to 1000 | < 100 | 100 to 1000 | < 100 |  |  | 
COc1c(F)cccc1Nc1c(-c2ccnc(C)n2)[nH]c2c(CCO)c[nH]c(=O)c12 [Compound 6] | 100 to 1000 | 100 to 1000 | ≥ 1000 | 100 to 1000 |  | 100 to 1000 | < 100 | ≥ 1000 | < 100 |  |  | 
COCC[C@H]1CNC(=O)c2c1[nH]c(-c1ccnc(C)n1)c2Nc1cccc(Cl)c1OC [Compound 463b] |  |  |  |  |  |  |  |  |  | greater inhibition of EGFR containing one or more mutations relative to inhibition of wild type EGFR |  | 
COCCc1c[nH]c(=O)c2c(Nc3cccc(Cl)c3OC)c(-c3ccncc3F)[nH]c12 [Compound 3] | 100 to 1000 |  | ≥ 1000 |  |  |  |  | 100 to 1000 |  |  | < 100 | < 100
COCCc1c[nH]c(=O)c2c(Nc3cccc(Cl)c3OC)c(-c3ccncn3)[nH]c12 [Compound 2] | < 100 | < 100 | ≥ 1000 | < 100 | < 100 | 100 to 1000 | < 100 | 100 to 1000 | < 100 |  | < 100 | < 100
COc1c(Cl)cccc1Nc1c(-c2ccnc(C)n2)[nH]c2c(CCO)c[nH]c(=O)c12 [Compound 5] | 100 to 1000 | < 100 | ≥ 1000 | 100 to 1000 | 100 to 1000 | 100 to 1000 | < 100 | 100 to 1000 | < 100 |  | < 100 | < 100
